Measured values published in ChEMBL document CHEMBL1150606, “Cytotoxic sphingosine 4-sulfates from the sponge Spirastrella abata” (2002).
Values after ≈ are worked out from the molar mass of the structure shown.

Key:
Type in all cases: functional
Conditions in all cases: read-out: ED50 (the source's name)
XF498 = assay: Cytotoxicity against human XF498 cells
SK-MEL-2 = assay: Cytotoxicity against human SK-MEL-2 cells
HCT-15 = assay: Cytotoxicity against human HCT15 cells
SK-OV-3 = assay: Cytotoxicity against human SKOV3 cells
A549 = assay: Cytotoxicity against human A549 cells

SMILES	EC50 (XF498) [µg/mL]	EC50 (SK-MEL-2) [µg/mL]	EC50 (HCT-15) [µg/mL]	EC50 (SK-OV-3) [µg/mL]	EC50 (A549) [µg/mL]
CCCCCCCCCCC/C=C/C[C@@H](OS(=O)(=O)O)[C@@H](O)[C@@H](N)CO	4.6 (≈ 11.6 µM)	4 (≈ 10.1 µM)	3.7 (≈ 9.35 µM)	8.2 (≈ 20.7 µM)	9.9 (≈ 25 µM)
CCCCCCCCCC/C=C/C[C@@H](OS(=O)(=O)O)[C@@H](O)[C@@H](N)CO	0.3 (≈ 0.786 µM)	0.3 (≈ 0.786 µM)	0.3 (≈ 0.786 µM)	0.3 (≈ 0.786 µM)	0.3 (≈ 0.786 µM)
